Reference: patent US20230272012A1, “PEPTIDES AND METHODS OF USE” (REALTA LIFE SCIENCES, INC., priority 2020, published 2023)
Entries after “also recorded” stand apart in the source; their conditions may differ. Bridge positions count the residues as written; N and C are the ends. Square brackets hold non-standard residues; d marks the D form. Ends that are not written are not given here. Peptide text beside a SMILES is read from it. R8 = C=CCCCCCC[C@@](C)(N)C(=O)O; S5 = C=CCCC[C@](C)(N)C(=O)O; Sar = CNCC(=O)O

Key:
C1q = target: T1, C1q (Homo sapiens, UniProt P02745+P02746+P02747); assay: C1q binding ELISA-type assay; details: for binding to C1q: plate-bound C1q, antibody detection
T1 construct: purchased Complement Technology (Tyler, Tex.)
T1 sequence (P02745 23-245): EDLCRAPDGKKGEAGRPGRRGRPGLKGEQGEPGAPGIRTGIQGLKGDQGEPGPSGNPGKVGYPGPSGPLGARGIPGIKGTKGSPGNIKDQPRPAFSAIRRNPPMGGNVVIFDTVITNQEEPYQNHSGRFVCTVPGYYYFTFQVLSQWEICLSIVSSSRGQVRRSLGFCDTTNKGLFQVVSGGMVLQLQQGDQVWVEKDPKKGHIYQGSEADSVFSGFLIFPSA
T1 sequence (P02746 28-253): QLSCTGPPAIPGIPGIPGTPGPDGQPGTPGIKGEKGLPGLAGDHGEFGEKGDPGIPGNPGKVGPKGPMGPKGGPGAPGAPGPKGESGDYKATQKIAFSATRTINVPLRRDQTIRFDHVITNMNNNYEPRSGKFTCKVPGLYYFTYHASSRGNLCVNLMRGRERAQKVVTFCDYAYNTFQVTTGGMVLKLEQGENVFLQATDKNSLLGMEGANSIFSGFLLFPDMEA
T1 sequence (P02747 29-245): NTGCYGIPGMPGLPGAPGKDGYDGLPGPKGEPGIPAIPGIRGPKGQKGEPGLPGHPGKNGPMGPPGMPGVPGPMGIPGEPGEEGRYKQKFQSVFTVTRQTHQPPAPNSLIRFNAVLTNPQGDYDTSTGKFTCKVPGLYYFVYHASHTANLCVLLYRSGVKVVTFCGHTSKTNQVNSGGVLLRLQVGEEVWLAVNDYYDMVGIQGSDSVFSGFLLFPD
Description: The C1q binding assay was performed as previously described. Briefly, an Immunlon-2 HB ELISA plate was coated with 1 μg/ml C1q in bicarbonate buffer overnight at 4° C. The plates were washed with PBS-T (phosphate buffered saline+0.1% Tween) and then blocked with 1% gelatin/PBS for 2 hours at room temperature. After washing, the plates were incubated with the peptides starting at 2.5 mg/ml and then serially diluted in 1% gelatin/PBS for 1 hour at room temperature followed by washing. Plates were then probed with rabbit antibody raised against the lead peptide […] (SEQ ID NO: 2) that lacked PEGylation at 1:1000 in 1% gelatin/PBS for 1 hour at room temperature followed by a goat anti-rabbit HRP (Sigma Aldrich, St Louis, Mo.) at 1:1,000 in 1% gelatin/PBS for 1 hour at room temperature with a washing step in between. After addition of TMB substrate solution to the wells, the reaction was stopped using 1N H2SO4, and the plate read on a BioTek Synergy HT plate reader at 450 nm.
The astrovirus capsid protein and the PIC1 molecules derived from it inhibit classical complement pathway activation by binding to the pattern recognition molecule C1q. The inventors next tested peptide variant binding to C1q in an ELISA-type assay in which C1q is used as the capture substrate and bound peptide detected with a rabbit polyclonal antibody against the peptide portion of PA-dPEG24 ([…]-d24; SEQ ID NO: 3). Binding curves were derived for the stapled and D-amino acid peptides based on the PA-I8Sar and PA-C9Sar (FIG. 6A-6D) backbone, from which half-maximal binding concentrations were calculated (FIGS. 2A and B, respectively). […] For the D-amino acid variants, all peptides in which C1q binding was detected, had variable but increased binding to C1q compared to PA-I8Sar (FIG. 2A). For the peptides based on the PA-C9Sar backbone, with the exception of PA-0148, C1q was bound to the same degree or greater than the parent peptide (FIG. 2B).
(§1) The inventors also assessed the ability of RLS-0127* and RLS-0133* to inhibit MPO activity as determined by inhibition of oxidation of TMB in a plate-based assay. […] Additionally, the inventors assessed the ability of RLS-0127* and RLS-0133* to bind C1q in a plate-based assay in which C1q is coated on the plate and increasing amounts of the peptides are added, followed by primary antibody to the peptides and secondary antibody conjugated to HRP. The plate was then incubated with TMB to give a […] signal that is detected at a wavelength of 450 nm in a plate reader.

MPO = target: T2, MPO (Homo sapiens, UniProt P05164); assay: MPO activity assay (TMB oxidation); assay type: biochemical; details: for inhibition of MPO peroxidase activity (TMB oxidation), dose response: purified human MPO, increasing amounts of peptide
T2 construct: purchased Lee BioSolutions (Maryland Heights, Mo.)
T2 sequence (P05164 49-745): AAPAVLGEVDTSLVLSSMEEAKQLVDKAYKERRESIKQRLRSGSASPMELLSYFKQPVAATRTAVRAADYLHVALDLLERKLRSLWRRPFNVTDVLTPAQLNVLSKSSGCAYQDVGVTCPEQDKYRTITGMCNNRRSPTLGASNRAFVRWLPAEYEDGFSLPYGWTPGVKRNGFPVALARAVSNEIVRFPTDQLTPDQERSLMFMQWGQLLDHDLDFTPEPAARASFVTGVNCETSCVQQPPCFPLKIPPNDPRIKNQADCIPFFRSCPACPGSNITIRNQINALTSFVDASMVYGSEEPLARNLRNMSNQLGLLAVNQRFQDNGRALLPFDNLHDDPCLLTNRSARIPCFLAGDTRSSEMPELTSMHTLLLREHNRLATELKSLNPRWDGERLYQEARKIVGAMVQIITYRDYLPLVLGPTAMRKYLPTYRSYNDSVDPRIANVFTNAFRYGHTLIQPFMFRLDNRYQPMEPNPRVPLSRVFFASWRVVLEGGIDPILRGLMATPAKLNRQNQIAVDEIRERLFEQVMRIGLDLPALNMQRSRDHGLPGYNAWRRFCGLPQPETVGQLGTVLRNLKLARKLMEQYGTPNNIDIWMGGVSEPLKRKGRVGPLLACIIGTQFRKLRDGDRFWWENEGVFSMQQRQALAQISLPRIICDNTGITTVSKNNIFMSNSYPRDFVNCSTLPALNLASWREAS
Description: The MPO activity assay was performed as previously described. Briefly, peptides were diluted to 12 mg/ml and serially titrated in a 96 well plate at a volume of 0.02 ml. MPO was diluted to 20 μg/ml and 0.02 ml was added to the titrated peptides. TMB (3,30,5,50-tetramethylbenzidine) (0.1 ml) was added to each well for 2 minutes, followed by 0.1 ml of 2.5 N H2SO4 for another 2 minutes, and then read on a 96 well plate reader (BioTek) at 450 nm.
as §1

CTLA-4 = target: T3, CTLA-4 (Homo sapiens, UniProt P16410); assay: CTLA-4 Blockade Bioassay (Promega); assay type: cell-based; parameters: host or cells: Jurkat T cells (CTLA-4 effector cells); aAPC/Raji cells; details: increasing concentrations
T3 sequence (P16410 36-223): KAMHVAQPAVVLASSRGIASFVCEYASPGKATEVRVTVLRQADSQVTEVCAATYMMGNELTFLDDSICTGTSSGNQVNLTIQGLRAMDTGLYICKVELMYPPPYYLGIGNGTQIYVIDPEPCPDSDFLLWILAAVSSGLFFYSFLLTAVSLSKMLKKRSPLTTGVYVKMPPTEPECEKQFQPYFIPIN
Description: CTLA-4 effector cells were incubated with aAPC/Raji Cells in the absence or presence of increasing concentrations of anti-CTLA-4 antibody (positive control), RLS-0127*, RLS-0130, RLS-0156, RLS-0170 and RLS-0174. Luminescence was detected in luminometer plate reader.
To assess if PIC1 peptides could block CTLA-4 inhibitory activity in a cell-based assay, select peptides were screened in the CTLA-4 Blockade Bioassay (Promega). This bioluminescent cell-based assay is used to measure the potency and stability of molecules targeting CTLA-4 and consists of two genetically engineered cell lines: CTLA-4 effector cells: Jurkat T cells expressing human CTLA-4 and a luciferase reporter driven by a native promoter which responds to TCR/CD28 activation and aAPC/Raji Cells: Raji cells expressing an engineered cell surface protein designed to activate cognate TCRs in an antigen-independent manner and endogenously expressing CTLA-4 ligands CD80 and CD86. When the two cell types are co-cultured, CTLA-4 competes with CD28 for their shared ligands, CD80 and CD86 and thus inhibits CD28 pathway activation and promoter-mediated luminescence. Addition of a molecule that blocks the interaction of CTLA-4 with its ligands CD80 and CD86 results in promoter-mediated luminescence.

## CC[C@H](C)[C@H](N)C(=O)N[C@]1(C)CCCCCCC=CCCC[C@@](C)(C(=O)N[C@@H](CS)C(=O)N[C@@H](CCC(N)=O)C(=O)N[C@@H](CCC(=O)O)C(=O)N[C@@H](CCCNC(=N)N)C(=O)N[C@@H](C)C(=O)N[C@@H](C)C(=O)O)NC(=O)CN(C)C(=O)[C@@H]2CCCN2C(=O)[C@H](CCC(=O)O)NC(=O)[C@H](CC(C)C)NC(=O)[C@H]([C@@H](C)CC)NC(=O)[C@H](CC(C)C)NC1=O [PA-0115, IR8LILEP(Sar)S5CQERAA] (H-I[R8]LILEP[Sar][S5]CQERAA-OH; staple 2-9)
C1q; half-maximal binding from binding curves
  binding to C1q compared with PA-I8Sar: markedly increased binding to C1q; also recorded: enhanced activity
MPO; half-maximal values from dose-response curves
  MPO inhibition compared with PA-I8Sar: enhanced activity
CTLA-4
  inhibitory activity in CTLA-4 blockade bioassay (luminescence): did not

## CC[C@H](C)[C@H](N)C(=O)N[C@@H](C)C(=O)N[C@@H](CC(C)C)C(=O)N[C@H](C(=O)N[C@@H](CC(C)C)C(=O)N[C@@H](CCC(=O)O)C(=O)N1CCC[C@H]1C(=O)N(C)CC(=O)N[C@@H](CS)C(=O)N[C@@]1(C)CCCC=CCCC[C@@](C)(C(=O)N[C@@H](C)C(=O)O)NC(=O)[C@H](CCCNC(=N)N)NC(=O)[C@H](CCC(=O)O)NC(=O)[C@H](CCC(N)=O)NC1=O)[C@@H](C)CC [PA-0117, IALILEP(Sar)CS5QERS5A] (H-IALILEP[Sar]C[S5]QER[S5]A-OH; staple 10-14)
C1q
  binding to C1q: dose-dependent binding
CTLA-4
  inhibitory activity in CTLA-4 blockade bioassay (luminescence): did not

## IALILEP(Sar)CCQERA (IALILEP[Sar]CCQERA; cysteine pairing not given here) [RLS-0133*]
MPO
  inhibition of MPO peroxidase activity (TMB oxidation), dose response: dose-dependently inhibited TMB oxidation; also recorded: inhibit complement activation and MPO peroxidase activity
CTLA-4
  inhibitory activity in CTLA-4 blockade bioassay (luminescence): did not

## IALILEP(Sar)dCCQERRA (IALILEP[Sar][dC]CQERRA; cysteine pairing not given here) [RLS-0127*]
C1q
  binding to C1q: bound C1q in a dose-dependent manner; also recorded: binds C1q
MPO
  inhibition of MPO peroxidase activity (TMB oxidation), dose response: dose-dependently inhibited TMB oxidation; also recorded: inhibit complement activation and MPO peroxidase activity
CTLA-4
  inhibitory activity in CTLA-4 blockade bioassay (luminescence): showed inhibitory activity; also recorded: able to inhibit CTLA-4 mediated cell signaling
